Results on one molecule are retold here after PMC3678512, “Synthesis and physicochemical characterization of novel phenotypic probes targeting the nuclear factor-kappa B signaling pathway” (Beilstein Journal of Organic Chemistry, 2013).

For orientation: pIC50 means the negative decadic logarithm of the IC50, by convention in mol/L. A word on the solubility: it is the dissolved amount per volume that the medium holds.

pIC50: −log10 of the molar value. Values after ≈ are worked out from the molar mass of the structure shown. Read-outs that look alike come from different tables or passages of the source.

For series [1], the system named is non-NOD-stimulated NF-κB pathways. The series is described as follows: Non-NOD-stimulated NF-κB pathway reporter assays (TNF-α, doxorubicin, PMA/ionomycin). It is filed as cell-based. To be noted: doxorubicin and PMA/ionomycin reporter assays. A general note: Reporter assays use an easily measured gene product as a stand-in for the process of interest.
Series [2] is described as follows: Hepatic toxicity in immortalized human hepatocytes. It is filed as cell-based. To be noted: Fa2N-4 immortalized human hepatocytes, read-out: Hepatic toxicity LC50. Here is the method:
(§1) The probes were evaluated using known in vitro ADME/T assays to understand their overall pharmacological properties (Table 2). […] The PAMPA (parallel artificial membrane permeability assay) assay is used as an in vitro model of passive, transcellular permeability. An artificial membrane immobilized on a filter is placed between a donor and acceptor compartment. […] It is not yet known whether it represents a species specific CPY450 inhibitor.

Series [3] relates to TNF-α-dependent IL-8 secretion in MCF-7 cells. The series is described as follows: TNF-α-dependent IL-8 secretion in MCF-7 cells. It is filed as cell-based.
The test system of series [4] is NOD1 (γ-tri-DAP) dependent IL-8 secretion. The series is described as follows: NOD1 (γ-tri-DAP) dependent IL-8 secretion. It is filed as cell-based.
Series [5] can be described thus: Hepatic microsome stability, human. The class given is in vitro ADME. To be noted: human, compound at 1 μM, 60 min. Here is the method: as §1
Another series relates to NOD2. The series is described as follows: MDP-stimulated signal transduction in NOD2 reporter cell lines. As to conditions: reporter cell lines with low or overexpressed NOD2. It is filed as cell-based.
Series [6] can be described thus: PAMPA (parallel artificial membrane permeability assay). The class given is in vitro ADME. As to the method: as §1
In a further series the target is T1, NOD1 (Homo sapiens, UniProt Q9Y239).
T1 construct: luciferase production in HEK 293T cells, which has endogenous NOD1 levels; endogenous in cells; host or cells: HEK 293T
T1 sequence (Q9Y239 1-953): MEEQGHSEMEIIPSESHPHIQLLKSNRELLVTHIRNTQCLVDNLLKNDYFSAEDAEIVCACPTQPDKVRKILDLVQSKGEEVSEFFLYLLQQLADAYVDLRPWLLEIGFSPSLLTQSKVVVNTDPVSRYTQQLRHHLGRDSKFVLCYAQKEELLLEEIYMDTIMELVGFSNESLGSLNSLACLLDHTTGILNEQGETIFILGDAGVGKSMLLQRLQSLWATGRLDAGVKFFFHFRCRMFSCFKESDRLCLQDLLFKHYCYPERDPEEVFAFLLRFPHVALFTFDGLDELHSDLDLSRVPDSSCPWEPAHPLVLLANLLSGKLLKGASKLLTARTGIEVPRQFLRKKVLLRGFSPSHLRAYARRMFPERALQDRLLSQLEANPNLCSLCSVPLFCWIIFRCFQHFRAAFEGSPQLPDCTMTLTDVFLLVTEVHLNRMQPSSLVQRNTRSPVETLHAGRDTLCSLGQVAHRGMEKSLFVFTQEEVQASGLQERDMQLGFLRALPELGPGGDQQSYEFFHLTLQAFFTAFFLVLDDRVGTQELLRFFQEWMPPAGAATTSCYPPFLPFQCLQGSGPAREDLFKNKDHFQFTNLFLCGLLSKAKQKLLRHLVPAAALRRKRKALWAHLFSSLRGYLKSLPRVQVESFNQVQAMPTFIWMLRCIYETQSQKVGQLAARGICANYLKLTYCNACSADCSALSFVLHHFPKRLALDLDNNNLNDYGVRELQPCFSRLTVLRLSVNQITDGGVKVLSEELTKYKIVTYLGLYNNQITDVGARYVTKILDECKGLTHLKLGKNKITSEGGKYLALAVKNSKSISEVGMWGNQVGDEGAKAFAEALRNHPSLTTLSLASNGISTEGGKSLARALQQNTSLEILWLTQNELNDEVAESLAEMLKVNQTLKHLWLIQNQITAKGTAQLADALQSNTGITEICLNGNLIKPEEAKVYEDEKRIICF
The experiment in a line: γ-tri-DAP-stimulated luciferase production in HEK 293T cells (NF-κB-linked reporter assay). To be noted: HEK 293T cells with endogenous NOD1, NF-κB-linked reporter; read-out: IC50, inhibition of γ-tri-DAP-stimulated luciferase production. It is filed as cell-based.

Series [7] relates to NOD2-dependent IL-8 secretion in MCF-7 cells. The series is described as follows: NOD2-dependent IL-8 secretion in MCF-7 cells. The class given is cell-based.
The next series in a line: Aqueous solubility. To be noted: for solubility: aqueous medium. It is filed as physicochemical. As to the method:
as §1

Series [8] is described as follows: Hepatic microsome stability, mouse. It is filed as in vitro ADME. To be noted: compound at 1 μM, 60 min. As to the method:
as §1

Consider `C/C=C/Cn1c(SCCCc2ccccc2)nc2c1c(=O)[nH]c(=O)n2C` [Probe 17], for which the “Selectivity over non-NOD-stimulated NF-κB pathways” value in series [1] is given as “selective”. Besides, in series [2], the CC50 is > 50 µM. For the same molecule, the “Inhibition of TNF-α-dependent IL-8 secretion” value in [3] is given as “neither inhibited”. In series [4], the “Inhibition of NOD1 (γ-tri-DAP) dependent IL-8 secretion” value was “selectively inhibited IL-8 secretion”. In addition, the “Hepatic microsome stability, human (% remaining)” value in series [5] is 8.8 % remaining. The “Selectivity for NOD1-dependent over MDP-stimulated (NOD2-dependent) signal transduction” value with NOD2 is > 8 fold. The “PAMPA Pe, donor pH 5.0” value in [6] (donor pH 5.0, acceptor pH 7.4, compound at 50 μM) is reported as 1269 10^−6 cm/s. The “PAMPA Pe, donor pH 6.2” value in series [6] (donor pH 6.2, acceptor pH 7.4, compound at 50 μM) is given as 1516 10^−6 cm/s. Moreover, the “PAMPA Pe, donor pH 7.4” value in series [6] (donor pH 7.4, acceptor pH 7.4, compound at 50 μM) was 1344 10^−6 cm/s. Also, the negative-log IC50 (pIC50) on NOD1 was 5.81. Besides, in series [7], the “Inhibition of NOD2-dependent IL-8 secretion” value is given as “neither inhibited”. The “Solubility (in words)” value in “Aqueous solubility” (across pH 5 to 7.4) is given as “lowest solubility”. For the same molecule, the solubility in “Aqueous solubility” (aqueous buffer, pH 5.0, read-out: Aqueous solubility pH 5.0) amounted to 1.5 µM (≈ 0.556 µg/mL); in the series “Aqueous solubility” (pH 6.2, aqueous buffer, read-out: Aqueous solubility pH 6.2), 1.8 µM (≈ 0.667 µg/mL); in the series “Aqueous solubility” (pH 7.4, aqueous buffer, read-out: Aqueous solubility pH 7.4) it was 1.7 µM (≈ 0.63 µg/mL). In series [8], the “Hepatic microsome stability, mouse (% remaining)” value turned out to be 0.86 % remaining.
